The NIST ThermoML archive (doi:10.1021/je900757k)

Assay: isobaric coefficient of expansion
Details: Liquid, DSC

CCCCCCCCCCCCC [tridecane]
isobaric coefficient of expansion
Details | 288.15 K | 298.15 K | 308.15 K | 318.15 K | 328.15 K | 338.15 K | 348.15 K
5000 kPa | 0.00088 1/K | 0.000891 1/K | 0.000905 1/K | 0.000919 1/K | 0.000936 1/K | 0.000958 1/K | 0.00098 1/K
10000 kPa | 0.00086 1/K | 0.000868 1/K | 0.00088 1/K | 0.000892 1/K | 0.000903 1/K | 0.000917 1/K | 0.000935 1/K
15000 kPa | 0.00084 1/K | 0.00085 1/K | 0.000858 1/K | 0.000865 1/K | 0.00087 1/K | 0.000882 1/K | 0.000896 1/K
20000 kPa | 0.000827 1/K | 0.000828 1/K | 0.000835 1/K | 0.000838 1/K | 0.000844 1/K | 0.000853 1/K | 0.000863 1/K
25000 kPa | 0.000811 1/K | 0.000812 1/K | 0.000814 1/K | 0.000818 1/K | 0.00082 1/K | 0.000827 1/K | 0.000833 1/K
30000 kPa | 0.000796 1/K | 0.000799 1/K | 0.000796 1/K | 0.000799 1/K | 0.0008 1/K | 0.000801 1/K | 0.000807 1/K
35000 kPa | 0.000777 1/K | 0.000782 1/K | 0.000781 1/K | 0.000781 1/K | 0.000782 1/K | 0.000783 1/K | 0.000784 1/K
40000 kPa | 0.000772 1/K | 0.000771 1/K | 0.000765 1/K | 0.000763 1/K | 0.000761 1/K | 0.000761 1/K | 0.000756 1/K
45000 kPa | 0.000754 1/K | 0.000755 1/K | 0.00075 1/K | 0.000748 1/K | 0.000745 1/K | 0.000741 1/K | 0.000741 1/K
50000 kPa | 0.000744 1/K | 0.000744 1/K | 0.000735 1/K | 0.000734 1/K | 0.000728 1/K | 0.000728 1/K | 0.000723 1/K
55000 kPa | 0.000722 1/K | 0.000725 1/K | 0.000718 1/K | 0.000718 1/K | 0.000714 1/K | 0.000714 1/K | 0.000709 1/K
